From paper PMC11409218, “Metal(triphenylphosphine)-atovaquone Complexes: Synthesis, Antimalarial Activity, and Suppression of Heme Detoxification” (Inorganic Chemistry, 2024)

Tested on: β-hematin crystal formation
Test: β-Hematin crystal formation by FTIR spectroscopy
Type: biochemical
Details: acid-buffered medium pH 5; 1:3 hematin/compound ratio
Description: The ability of these compounds to inhibit the formation of β-hematin crystals was investigated by IR spectroscopy (Figure 2f). Of note, β-hematin crystal formation was assayed in an acid-buffered medium, while hemin titration was assayed at neutral pH. […]. For both ATV and complexes 1–3, there may have been overlapping between a decrease in the (C = O) band of heme species and a (C = O) band of quinone. However, there was no danger of overlaps in the (C–O) band of heme species at 1210 cm^–1, since these species are absent from the drugs.
The conversion of hematin into β-hematin crystals was determined by FTIR spectroscopy as described previously.[52] In a microtube, 20 mg hemin and three equivalents of the compounds were dissolved in 3 mL 0.1 M NaOH solution and stirred for 30 min at 60 °C. Then, 0.3 mL 0.1 M HCl and 1.7 mL sodium acetate buffer (10 M, pH 5) were added at the same temperature. […] After incubation for 120 min, the reaction mixture was cooled on ice for 10 min and then centrifuged and washed with water to remove salts. Resulting crystals were dried and IR spectra were obtained using ATR mode.[66]−[68]

## O=C1C(O)=C([C@H]2CC[C@H](c3ccc(Cl)cc3)CC2)C(=O)c2ccccc21 [ATV, atovaquone]
  inhibition of β-hematin crystal formation (IR bands 1663 and 1210 cm^–1): unable to inhibit β-hematin crystal formation
